Source: US20250215039A1, “NUCLEOSIDES FOR TREATING CANCER” (PRIMEFOUR THERAPEUTICS, INC., priority 2022, published 2025)
Like-named read-outs stand apart in the source and are kept apart here.

System: cancer cell lines
Test: Cancer cell proliferation activity (CellTiterGlo, 72 h)
Type: cell-based
Conditions: 72 h, 72 h, read-out: IC50 cell proliferation
Procedure: Dose response relationships on cell proliferation was assessed for representative Compounds of the Disclosure on cancer cell lines. Briefly, compound treatment of cells started one day after seeding with a final DMSO concentration of 0.1%, and was performed by nanodrop-dispensing using a Tecan Dispenser. 0.1% DMSO (solvent) and Staurosporine (10 μM) served as high control (100% viability) and low control (0% viability), respectively.
Cells were cultured in the appropriate media. For the assays, cells were seeded in white cell culture-treated flat and clear bottom multiwell plates and incubated at 37° C. overnight before compound was added. After incubation for 72 h at 37° C. at 5% or 10% CO2 dependent on the medium, cell plates were equilibrated to room temperature for one hour, CellTiterGlo reagent (Promega) was added and luminescence was measured approximately an hour later using a luminometer.
Raw data were converted into percent cell viability relative to the high and low control, which were set to 100% and 0%, respectively.
The IC50 values are summarized in Tables 9A-1, Table 10A, and Table 10B.

[1] = Homo sapiens, A204, 72 h, A204 (muscle)
[2] = Homo sapiens, ACHN, ACHN (kidney)
[3] = Homo sapiens, ASPC1, 72 h, ASPC1 (pancreas)
[4] = Homo sapiens, BXPC-3, 72 h, BXPC3 (pancreas)
[5] = Homo sapiens, Caco-2, 72 h, CACO2 (colon)
[6] = Homo sapiens, Granta-519, 72 h, GRANTA-519 (hematological)
[7] = Homo sapiens, Kasumi 1, 72 h, KASUMI-1 (hematological)
[8] = Homo sapiens, LoVo, LOVO (colon)
[9] = Homo sapiens, MDA-MB-231, 72 h, MDAMB231 (breast)
[10] = Homo sapiens, MDA-MB-436, 72 h, MDAMB436 (breast)
[11] = Homo sapiens, MINO, MINO (hematological)
[12] = Homo sapiens, SK-BR-3, 72 h, SKBR3 (breast)

Compound	IC50 (5637 (bladder)) [µM]	IC50 [1] [µM]	IC50 [2] [µM]	IC50 [3] [µM]	IC50 [4] [µM]	IC50 [5] [µM]	IC50 [6] [µM]	IC50 [7] [µM]	IC50 [8] [µM]	IC50 [9] [µM]	IC50 [10] [µM]	IC50 [11] [µM]	IC50 [12] [µM]	IC50 (NCI-H358M, NCIH358M (lung)) [µM]
O=c1[nH]c(=O)n([C@H]2C[C@H](O)[C@@H](CO)O2)cc1F [compound 185, 5-fluoro-1-((2R,4S,5R)-4-hydroxy-5-(hydroxymethyl)tetrahydrofuran-2-yl)pyrimidine-2,4(1H,3H)-dione]	0.001	0.077	0.004	0.005	0.002	0.116	0.002	0.024	0.007	0.076	0.006	0.004	0.001	0.012
Nc1nc(F)nc2c1ncn2[C@H]1C[C@H](O)[C@](CO)(CC2CC2)O1 [Cpd. No. 130, (2R,3S,5R)-5-(6-amino-2-fluoro-9H-purin-9-yl)-2-(cyclopropylmethyl)-2-(hydroxymethyl)tetrahydrofuran-3-ol]	2.06	1.71	3.83	0.62	3.28	1.5	5.22	0.21	0.49	> 50	0.53	0.3	0.12	0.93
N#C[C@]1(CO)O[C@@H](n2cc(F)c(=O)[nH]c2=O)C[C@@H]1O [Cpd. No. 107, (2R,3S,5R)-5-(5-fluoro-2,4-dioxo-3,4-dihydropyrimidin-1(2H)-yl)-3-hydroxy-2-(hydroxymethyl)tetrahydrofuran-2-carbonitrile]	2.22	> 50	3.84	1.58	1	> 50	1.86	> 50	> 50	> 50	> 50	2.34	0.97	> 50
Nc1nc(F)nc2c1ncn2[C@H]1C[C@H](O)[C@](CO)(C2CC2)O1 [Cpd. No. 5, (2R,3S,5R)-5-(6-amino-2-fluoro-9H-purin-9-yl)-2-cyclopropyl-2-(hydroxymethyl)tetrahydrofuran-3-ol]	4.93	2.32	3.67	2.62	> 50	7.85	> 50	1.4	2.75	> 50	2.9	1.75	1.06	1.98

The next lines start with the values.

IC50 (5637 (bladder)) [µM]	IC50 [1] [µM]	IC50 [2] [µM]	IC50 [3] [µM]	IC50 [4] [µM]	IC50 [5] [µM]	IC50 [6] [µM]	IC50 [7] [µM]	IC50 [8] [µM]	IC50 [9] [µM]	IC50 [10] [µM]	IC50 [11] [µM]	IC50 [12] [µM]	IC50 (NCI-H358M, NCIH358M (lung)) [µM]	Compound
7.01	0.63	2.81	> 50	> 50	> 50	2.22	2.13	> 50	3.4	4.09	1.72	3.45	1.07	C[C@]1(CO)O[C@@H](n2cnc3c(O)nc(N)nc32)C[C@@H]1O [Cpd. No. 115, 2-amino-9-((2R,4S,5R)-4-hydroxy-5-(hydroxymethyl)-5-methyltetrahydrofuran-2-yl)-9H-purin-6-ol]
3.9	1.35	> 50	4.62	> 50	> 50	4.44	1.63	> 50	1.69	3.85	2.54	> 50	1.59	C#C[C@]1(CO)O[C@@H](n2cnc3c(=O)[nH]c(N)nc32)[C@H](F)[C@@H]1O [compound 95, 2-amino-9-((2R,3R,4R,5R)-5-ethynyl-3-fluoro-4-hydroxy-5-(hydroxymethyl)tetrahydrofuran-2-yl)-1,9-dihydro-6H-purin-6-one]
> 50	1.83	> 50	> 50	> 50	> 50	1.4	1.46	> 50	6.28	> 50	2.7	> 50	2.96	CC[C@]1(CO)O[C@@H](n2cnc3c(O)nc(N)nc32)C[C@@H]1O [Cpd. No. 223, 2-amino-9-((2R,4S,5R)-5-ethyl-4-hydroxy-5-(hydroxymethyl)tetrahydrofuran-2-yl)-9H-purin-6-ol]
0.01	4.02	1.26	2.93	0.5	3.28	0.92	1.69	2.54	0.4	3.49	0.37	0.98	0.01	C#C[C@]1(CO)O[C@@H](n2cc(Cl)c(N)nc2=O)C[C@@H]1O [Cpd. No. 109, 4-amino-5-chloro-1-((2R,4S,5R)-5-ethynyl-4-hydroxy-5-(hydroxymethyl)tetrahydrofuran-2-yl)pyrimidin-2(1H)-one]
